From ChEMBL document CHEMBL1641486, “Synthesis of 3'-azido-3'-deoxythymidine (AZT)--Cinchona alkaloid conjugates via click chemistry: Toward novel fluorescent markers and cytostatic agents” (2011)
In brackets after ≈: the same amount, converted by molar mass.

System: KB
Test: Cytotoxicity against human KB cells assessed as inhibition of protein biosynthesis
Assay type: functional
Settings: read-out: ED50 (the source's name)

Structure (SMILES): COc1ccc2nccc([C@@H](O)[C@@H]3CC4CCN3CC4c3cn([C@H]4C[C@H](n5cc(C)c(=O)[nH]c5=O)O[C@@H]4CO)nn3)c2c1 (some centres undefined)
- EC50: 1.3 µg/mL (≈ 2.2 µM)

Structure (SMILES): COc1ccc2nccc([C@H](O)[C@H]3CC4CCN3CC4c3cn([C@H]4C[C@H](n5cc(C)c(=O)[nH]c5=O)O[C@@H]4CO)nn3)c2c1 (some centres undefined)
- EC50: 12 µg/mL (≈ 20.4 µM)

Structure (SMILES): Cc1cn([C@H]2C[C@H](n3cc(C4CN5CCC4C[C@H]5[C@H](O)c4ccnc5ccccc45)nn3)[C@@H](CO)O2)c(=O)[nH]c1=O (some centres undefined)
- EC50: 11.6 µg/mL (≈ 20.7 µM)

Structure (SMILES): Cc1cn([C@H]2C[C@H](n3cc(C4CN5CCC4C[C@@H]5[C@@H](O)c4ccnc5ccccc45)nn3)[C@@H](CO)O2)c(=O)[nH]c1=O (some centres undefined)
- EC50: 21 µg/mL (≈ 37.5 µM)

Structure (SMILES): C=CC1CN2CCC1C[C@H]2[C@H](OCc1cn([C@H]2C[C@H](n3cc(C)c(=O)[nH]c3=O)O[C@@H]2CO)nn1)c1ccnc2ccc(OC)cc12 (some centres undefined)
- EC50: 2.1 µg/mL (≈ 3.33 µM)

Structure (SMILES): C=CC1CN2CCC1C[C@@H]2[C@@H](OCc1cn([C@H]2C[C@H](n3cc(C)c(=O)[nH]c3=O)O[C@@H]2CO)nn1)c1ccnc2ccc(OC)cc12 (some centres undefined)
- EC50: 3.9 µg/mL (≈ 6.19 µM)

Structure (SMILES): C=CC1CN2CCC1C[C@H]2[C@H](OCc1cn([C@H]2C[C@H](n3cc(C)c(=O)[nH]c3=O)O[C@@H]2CO)nn1)c1ccnc2ccccc12 (some centres undefined)
- EC50: > 100 µg/mL

Structure (SMILES): C=CC1CN2CCC1C[C@@H]2[C@@H](OCc1cn([C@H]2C[C@H](n3cc(C)c(=O)[nH]c3=O)O[C@@H]2CO)nn1)c1ccnc2ccccc12 (some centres undefined)
- EC50: > 100 µg/mL

Structure (SMILES): Nc1ccn([C@@H]2O[C@H](CO)[C@@H](O)[C@@H]2O)c(=O)n1 [CYTARABINE]
- EC50: 0.99 µg/mL (≈ 4.07 µM)
